Reference: ChEMBL document CHEMBL4145497, “Discovery of 2-aminothiazolyl berberine derivatives as effectively antibacterial agents toward clinically drug-resistant Gram-negative Acinetobacter baumanii” (Eur J Med Chem, 2018)
Converted amounts (≈) assume the structure as drawn.

Tests used:
Assay type in all cases: functional
[1] = tested on: Pseudomonas aeruginosa; experiment: Antibacterial activity against Pseudomonas aeruginosa ATCC 27853 after 18 to 24 hrs by CLSI two fold serial dilution method
[2] = tested on: Escherichia coli; experiment: Antibacterial activity against Escherichia coli DH52 after 18 to 24 hrs by CLSI two fold serial dilution method
[3] = tested on: Saccharomyces cerevisiae; experiment: Antifungal activity against Saccharomyces cerevisiae ATCC 9763 by CLSI two fold serial dilution method
[4] = tested on: Staphylococcus aureus; experiment: Antibacterial activity against methicillin-resistant Staphylococcus aureus N315 after 18 to 24 hrs by CLSI two fold serial dilution method
[5] = tested on: Staphylococcus aureus; experiment: Antibacterial activity against Staphylococcus aureus ATCC 25923 after 18 to 24 hrs by CLSI two fold serial dilution method
[6] = tested on: Candida tropicalis; experiment: Antifungal activity against drug-resistant Candida tropicalis by CLSI two fold serial dilution method
[7] = tested on: Escherichia coli; experiment: Antibacterial activity against drug-resistant Escherichia coli after 18 to 24 hrs by CLSI two fold serial dilution method
[8] = tested on: Klebsiella pneumoniae; experiment: Antibacterial activity against drug-resistant Klebsiella pneumoniae after 18 to 24 hrs by CLSI two fold serial dilution method
[9] = tested on: Candida albicans; experiment: Antifungal activity against drug-resistant Candida albicans by CLSI two fold serial dilution method
[10] = tested on: Pseudomonas aeruginosa; experiment: Antibacterial activity against drug-resistant Pseudomonas aeruginosa after 18 to 24 hrs by CLSI two fold serial dilution method
[11] = tested on: Acinetobacter baumannii; experiment: Antibacterial activity against drug-resistant Acinetobacter baumannii after 18 to 24 hrs by CLSI two fold serial dilution method
[12] = tested on: Cyberlindnera jadinii; experiment: Antifungal activity against Candida utilis ATCC 9950 by CLSI two fold serial dilution method; conditions: Williopsis jadinii
[13] = tested on: Micrococcus luteus; experiment: Antibacterial activity against Micrococcus luteus ATCC 4698 after 18 to 24 hrs by CLSI two fold serial dilution method
[14] = tested on: Pichia norvegensis; experiment: Antifungal activity against Candida mycoderma ATCC 96918 by CLSI two fold serial dilution method
[15] = tested on: Candida albicans; experiment: Antifungal activity against Candida albicans ATCC 76615 by CLSI two fold serial dilution method
[16] = tested on: Enterococcus faecalis; experiment: Antibacterial activity against drug-resistant Enterococcus faecalis after 18 to 24 hrs by CLSI two fold serial dilution method
[17] = tested on: Bacillus subtilis; experiment: Antibacterial activity against Bacillus subtilis ATCC 21216 after 18 to 24 hrs by CLSI two fold serial dilution method
[18] = tested on: Candida parapsilosis; experiment: Antifungal activity against Candida parapsilosis ATCC 22019 by CLSI two fold serial dilution method; conditions: Lodderomyces parapsilosis
[19] = tested on: Aspergillus flavus; experiment: Antifungal activity against Aspergillus flavus ATCC 204304 by CLSI two fold serial dilution method
[20] = tested on: Aspergillus fumigatus; experiment: Antifungal activity against drug-resistant Aspergillus fumigatus by CLSI two fold serial dilution method

| SMILES | MIC [1] [µM] | MIC [2] [µM] | MIC [3] [µM] | MIC [4] [µM] | MIC [5] [µM] | MIC [6] [µM] | MIC [7] [µM] | MIC [8] [µM] | MIC [9] [µM] | MIC [10] [µM] | MIC [11] [µM] | MIC [12] [µM] | MIC [13] [µM] | MIC [14] [µM] | MIC [15] [µM] | MIC [16] [µM] | MIC [17] [µM] | MIC [18] [µM] | MIC [19] [µM] | MIC [20] [µM] |
| --- | --- | --- | --- | --- | --- | --- | --- | --- | --- | --- | --- | --- | --- | --- | --- | --- | --- | --- | --- | --- |
| CCCCCCCCCCCCOc1c(OC)cc(/C=N/NC(N)=S)c2c1CN1CCc3cc4c(cc3C1C2)OCO4 (stereo unspecified) | 110 (≈ 65.4 µg/mL) | 110 (≈ 65.4 µg/mL) | 220 (≈ 131 µg/mL) | 110 (≈ 65.4 µg/mL) | 110 (≈ 65.4 µg/mL) | 50 (≈ 29.7 µg/mL) | 110 (≈ 65.4 µg/mL) | 430 (≈ 256 µg/mL) | 110 (≈ 65.4 µg/mL) | 110 (≈ 65.4 µg/mL) | 7 (≈ 4.16 µg/mL) | 430 (≈ 256 µg/mL) | 110 (≈ 65.4 µg/mL) | 220 (≈ 131 µg/mL) | 110 (≈ 65.4 µg/mL) | 220 (≈ 131 µg/mL) | 430 (≈ 256 µg/mL) | 220 (≈ 131 µg/mL) | 430 (≈ 256 µg/mL) | 7 (≈ 4.16 µg/mL) |
| C#CCOc1c(OC)cc(/C=N/Nc2nccs2)c2c1CN1CCc3cc4c(cc3C1C2)OCO4 (stereo unspecified) | 130 (≈ 63.5 µg/mL) | 130 (≈ 63.5 µg/mL) | 1050 (≈ 513 µg/mL) |  | 130 (≈ 63.5 µg/mL) |  |  |  |  |  |  | 260 (≈ 127 µg/mL) | 520 (≈ 254 µg/mL) | 1050 (≈ 513 µg/mL) | 260 (≈ 127 µg/mL) |  | 520 (≈ 254 µg/mL) | 130 (≈ 63.5 µg/mL) | 1050 (≈ 513 µg/mL) |  |
| COc1cc(/C=N/NC(N)=S)c2c(c1OCC#N)CN1CCc3cc4c(cc3C1C2)OCO4 (stereo unspecified) | 280 (≈ 130 µg/mL) | 280 (≈ 130 µg/mL) | 280 (≈ 130 µg/mL) | 280 (≈ 130 µg/mL) | 280 (≈ 130 µg/mL) | 280 (≈ 130 µg/mL) | 280 (≈ 130 µg/mL) | 550 (≈ 256 µg/mL) | 280 (≈ 130 µg/mL) | 280 (≈ 130 µg/mL) | 280 (≈ 130 µg/mL) | 280 (≈ 130 µg/mL) | 280 (≈ 130 µg/mL) | 550 (≈ 256 µg/mL) | 280 (≈ 130 µg/mL) | 280 (≈ 130 µg/mL) | 550 (≈ 256 µg/mL) | 280 (≈ 130 µg/mL) | 280 (≈ 130 µg/mL) | 70 (≈ 32.6 µg/mL) |
| CCCCOc1c(OC)cc(/C=N/NC(N)=S)c2c1CN1CCc3cc4c(cc3C1C2)OCO4 (stereo unspecified) | 130 (≈ 62.7 µg/mL) | 270 (≈ 130 µg/mL) | 530 (≈ 256 µg/mL) | 130 (≈ 62.7 µg/mL) | 130 (≈ 62.7 µg/mL) | 270 (≈ 130 µg/mL) | 270 (≈ 130 µg/mL) | 130 (≈ 62.7 µg/mL) | 130 (≈ 62.7 µg/mL) | 270 (≈ 130 µg/mL) | 70 (≈ 33.8 µg/mL) | 130 (≈ 62.7 µg/mL) | 270 (≈ 130 µg/mL) | 130 (≈ 62.7 µg/mL) | 130 (≈ 62.7 µg/mL) | 130 (≈ 62.7 µg/mL) | 270 (≈ 130 µg/mL) | 130 (≈ 62.7 µg/mL) | 270 (≈ 130 µg/mL) | 270 (≈ 130 µg/mL) |
| COc1cc(/C=N/NC(N)=S)c2c(c1OCCO)CN1CCc3cc4c(cc3C1C2)OCO4 (stereo unspecified) | 140 (≈ 65.9 µg/mL) | 270 (≈ 127 µg/mL) | 540 (≈ 254 µg/mL) | 270 (≈ 127 µg/mL) | 270 (≈ 127 µg/mL) | 270 (≈ 127 µg/mL) | 270 (≈ 127 µg/mL) | 270 (≈ 127 µg/mL) | 270 (≈ 127 µg/mL) | 140 (≈ 65.9 µg/mL) | 540 (≈ 254 µg/mL) | 270 (≈ 127 µg/mL) | 270 (≈ 127 µg/mL) | 140 (≈ 65.9 µg/mL) | 270 (≈ 127 µg/mL) | 30 (≈ 14.1 µg/mL) | 270 (≈ 127 µg/mL) | 20 (≈ 9.41 µg/mL) | 270 (≈ 127 µg/mL) | 270 (≈ 127 µg/mL) |
| COc1cc(/C=N/NC(N)=S)c2c(c1OCc1ccc(Cl)cc1Cl)CN1CCc3cc4c(cc3C1C2)OCO4 (stereo unspecified) | 220 (≈ 129 µg/mL) | 440 (≈ 258 µg/mL) | 880 (≈ 515 µg/mL) | 110 (≈ 64.4 µg/mL) | 110 (≈ 64.4 µg/mL) | 220 (≈ 129 µg/mL) | 440 (≈ 258 µg/mL) | 220 (≈ 129 µg/mL) | 110 (≈ 64.4 µg/mL) | 220 (≈ 129 µg/mL) | 3 (≈ 1.76 µg/mL) | 440 (≈ 258 µg/mL) | 110 (≈ 64.4 µg/mL) | 220 (≈ 129 µg/mL) | 110 (≈ 64.4 µg/mL) | 440 (≈ 258 µg/mL) | 220 (≈ 129 µg/mL) | 10 (≈ 5.86 µg/mL) | 440 (≈ 258 µg/mL) | 110 (≈ 64.4 µg/mL) |
| COc1cc(/C=N/NC(N)=S)c2c(c1OCc1ccc(Cl)cc1)CN1CCc3cc4c(cc3C1C2)OCO4 (stereo unspecified) | 230 (≈ 127 µg/mL) | 230 (≈ 127 µg/mL) | 470 (≈ 259 µg/mL) | 230 (≈ 127 µg/mL) | 230 (≈ 127 µg/mL) | 230 (≈ 127 µg/mL) | 230 (≈ 127 µg/mL) | 120 (≈ 66.1 µg/mL) | 230 (≈ 127 µg/mL) | 230 (≈ 127 µg/mL) | 230 (≈ 127 µg/mL) | 470 (≈ 259 µg/mL) | 230 (≈ 127 µg/mL) | 230 (≈ 127 µg/mL) | 230 (≈ 127 µg/mL) | 230 (≈ 127 µg/mL) | 470 (≈ 259 µg/mL) | 7 (≈ 3.86 µg/mL) | 470 (≈ 259 µg/mL) | 470 (≈ 259 µg/mL) |
| COc1cc(/C=N/NC(N)=S)c2c(c1O)CN1CCc3cc4c(cc3C1C2)OCO4 (stereo unspecified) | 150 (≈ 64 µg/mL) | 300 (≈ 128 µg/mL) | 300 (≈ 128 µg/mL) | 150 (≈ 64 µg/mL) | 150 (≈ 64 µg/mL) | 300 (≈ 128 µg/mL) | 600 (≈ 256 µg/mL) | 150 (≈ 64 µg/mL) | 300 (≈ 128 µg/mL) | 150 (≈ 64 µg/mL) | 150 (≈ 64 µg/mL) | 600 (≈ 256 µg/mL) | 300 (≈ 128 µg/mL) | 300 (≈ 128 µg/mL) | 150 (≈ 64 µg/mL) | 300 (≈ 128 µg/mL) | 300 (≈ 128 µg/mL) | 9 (≈ 3.84 µg/mL) | 600 (≈ 256 µg/mL) | 150 (≈ 64 µg/mL) |
